Two molecules from doi:10.1101/2025.07.30.667614, “Steric control of signaling bias in the immunometabolic receptor GPR84” (bioRxiv, 2025) can be followed below.

Like-named read-outs stand apart in the source and are kept apart here.

The target of one assay is T1, GPR84 F187A (Homo sapiens, UniProt Q9NQS5, F187A).
T1 construct: FLAG (N); eYFP (C); expressed in transfected cells; host or cells: HEK293T, transient
Put plainly: BRET β-arrestin-1 recruitment assay, HEK293T cells. The settings on record: for EC50: F187A, read-out: β-arrestin-1 pEC50 ± SEM (converted). The format is cell-based. As to the method:
(§1) As a control, cells were transfected with 100:1 ratio of empty plasmid and the appropriate arrestin isoform fused to nano-luciferase. After 24 h, cells were seeded at 50,000 cells per well in poly-D-lysine-coated white 96-well plates and incubated at 37°C overnight. After 24 h, cells were washed twice with Hank’s balanced salt solution (HBSS), pH 7.4, and 10 μl/well of the nano-luciferase substrate coelenterazine-h (Nanolight Technologies) was added to a final concentration of 5 μM. Cells were incubated in the dark for 10 min at 37°C, after which 10 μl/well of the agonist compound was added, and the cells were incubated for another 5 minutes. 15 min after coelenterazine-h addition, reading of emission signals were performed on a PHERAstar FS plate reader (BMG Labtech) at 475 and 535 nm, representing nano-luciferase and eYFP emission signals, respectively. The net bioluminescence resonance energy transfer (BRET) ratio (mBRET) was calculated as follows: mBRET=(BRET^sample−BRET^control)*1000whereBRET=Emission^535nm/Emission^475nm
For orientation: Bioluminescence resonance energy transfer reports proximity on the nanometre scale.

The next assay deals with T2, GPR84 L336A (Homo sapiens, UniProt Q9NQS5, L336A).
T2 construct: FLAG (N); eYFP (C); expressed in transfected cells; host or cells: HEK293T, transient
T2 sequence (Q9NQS5 whole entry L336A): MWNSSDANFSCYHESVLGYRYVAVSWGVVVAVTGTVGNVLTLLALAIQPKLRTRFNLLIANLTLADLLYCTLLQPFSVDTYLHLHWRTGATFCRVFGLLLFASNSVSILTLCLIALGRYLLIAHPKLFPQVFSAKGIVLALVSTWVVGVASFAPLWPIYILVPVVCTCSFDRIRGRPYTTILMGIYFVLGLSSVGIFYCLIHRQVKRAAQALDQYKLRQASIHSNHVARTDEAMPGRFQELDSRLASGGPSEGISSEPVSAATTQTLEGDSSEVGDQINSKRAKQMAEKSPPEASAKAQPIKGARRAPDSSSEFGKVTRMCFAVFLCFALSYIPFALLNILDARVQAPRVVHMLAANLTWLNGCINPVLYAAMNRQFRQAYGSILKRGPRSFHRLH
Put plainly: BRET β-arrestin-1 recruitment assay, HEK293T cells. It is filed as cell-based. The following applies: for EC50: L336A, read-out: β-arrestin-1 pEC50 ± SEM (converted). As to the method: as §1

Another assay deals with T3, GPR84 S331A (Homo sapiens, UniProt Q9NQS5, S331A).
T3 construct: FLAG (N); eYFP (C); expressed in transfected cells; host or cells: HEK293T, transient
T3 sequence (Q9NQS5 whole entry S331A): as the sequence (Q9NQS5 whole entry L336A) above, with S331A, A336L counted along it
Put plainly: BRET β-arrestin-1 recruitment assay, HEK293T cells. The format is cell-based. The settings on record: for Emax: HEK-293T. As to the method:
as §1

The target of a further assay is T4, GPR84-WT (Homo sapiens, UniProt Q9NQS5).
T4 construct: FLAG (N); eYFP (C); expressed in transfected cells; host or cells: HEK293T, transient
T4 sequence (Q9NQS5 whole entry): as the sequence (Q9NQS5 whole entry L336A) above, with A336L counted along it
The assay is described as follows: BRET β-arrestin-1 recruitment assay, HEK293T cells. The format is cell-based. The settings on record: for Emax: HEK-293T. As to the method:
as §1

The next assay addresses T5, GPR84 (wild type) (Homo sapiens, UniProt Q9NQS5).
T5 construct: expressed in transfected cells; host or cells: Flp-In T-REx 293 cells (membranes, doxycycline-induced)
Put plainly: Competition binding assay with orthosteric antagonist [3H]140. As to the method: Binding was initiated by the addition of 5 μg membrane protein generated from Flp-In™ T-REx™ cells induced to express the receptor construct of interest with 100 ng/ml doxycycline. Nonspecific binding of the radioligand was determined in the presence of 10 μM compound 837. All assays were performed at 25 °C for 1 h before termination by the addition of ice-cold phosphate-buffered saline (PBS) and vacuum filtration through GF/C glassfibre filter-bottom 96-well microplates using a UniFilter FilterMate Harvester (Revvity). Each well was washed three times with ice-cold PBS and filters were allowed to dry for 2–3 h before addition of 50 μl of Ultima Gold™ XR. Radioactivity was quantified by liquid scintillation spectrometry.

A further assay addresses T6, wild type GPR84 (Homo sapiens, UniProt Q9NQS5).
T6 construct: expressed in transfected cells
The assay is described as follows: pThr263/pThr264 GPR84 phosphorylation assay (magnetic bead capture). It is filed as cell-based. The following applies: for EC50: 5 min stimulation, read-out: pEC50 ± SEM, phosphorylation of Thr263 and Thr264 (converted). As to the method: Flp-In™ TREx™ 293 cells engineered to express FLAG-GPR84-eYFP were seeded onto poly-D-lysine-coated clear 96-well plates at a density of 5 x 10^4 cells/well and grown overnight before treatment with 100 ng/ml doxycycline to induce receptor expression. After 24 h, cells were serum starved for 2 hours then stimulated with the indicated agonists, prepared in serum free media, for 5 min at 37 °C. After washing with ice-cold PBS, cells were lysed in 100 μl/well lysis buffer (150 mM NaCl, 50 mM Tris-HCl, 5 mM EDTA, 1% IGEPAL (Nonidet P-40), 0.5% deoxycholic acid, and 0.1% SDS; pH 7.4) supplemented with protease and phosphatase inhibitor cocktail on an orbital shaker for 1 hour at 4 °C. Lysates were cleared by centrifugation at 3700 × g for 20 min at 4 °C and 80 μl of supernatants transferred into 96-U-bottom-well assay plates (Greiner Bio-One). GFP-Trap® magnetic agarose beads (1 μl/well) were washed then diluted in lysis buffer to give a total volume of 20 μl of bead slurry per well before adding to supernatant. Assay plates were incubated on a microplate shaker at 700 rpm for 2 h at 4 °C then washed three times with 100 μl of PBS with 0.1% Tween-20 (PBS-T) under magnetic force using a handheld magnetic separation block (Milliplex, Millipore). After washing, anti-pThr263/pThr264 antiserum was diluted 1:1000 in PBS-T then 60 μl added to assay plate. The plates were then incubated overnight at 4 °C on a microplate shaker. After another wash cycle (3 x with PBS-T), anti-rabbit horseradish […] (HRP)-linked secondary antibody was added to PBS-T to a final dilution of 1:10,000 and incubated on a microplate shaker for 2 h at room temperature. After a further wash cycle, 100 μl of TMB substrate solution was added to each well and the plates were incubated for 15 min. The reaction was stopped by the addition of 100 μl of 0.3 M sulphuric acid. The assay plates were then placed on a magnetic separation block and 100 μl of the supernatant was transferred to a transparent 96-well F-bottom plate. The OD at 450 nm was then read on a PHERAstar FS plate reader (BMG Labtech).

The target in a further assay is GPR84 (Homo sapiens, UniProt Q9NQS5). Put plainly: Competition binding kinetics of [3H]140 (on and off rates of unlabeled ligands). On the set-up: expressed in transfected cells; host or cells: membranes. The following applies: for Kd: read-out: Koff/Kon. As to the method:
The kinetic binding parameters of unlabeled ligands were determined through assessment of the binding kinetics of [^3H]140.[21] […] At the indicated time points, membrane protein was added, and tubes were gently agitated. Three different concentrations of competitor were assessed to ensure that the rate parameters calculated were independent of ligand concentration.

The mark [1] stands for this setting: Extended Data Table 4, read-out: β-arrestin-1 pEC50 ± SEM (converted).
[2] abbreviates: β-arrestin-1 recruitment, Extended Data Table 6.
Setting [3] is: competition with [3H]140, Fig. 1f, read-out: pKi (converted).

T6 sequence (Q9NQS5 whole entry): as the sequence (Q9NQS5 whole entry L336A) above, with A336L counted along it
Chain of GPR84 (Q9NQS5 whole entry): as the sequence (Q9NQS5 whole entry L336A) above, with A336L counted along it
T1 sequence (Q9NQS5 whole entry F187A): as the sequence (Q9NQS5 whole entry L336A) above, with F187A, A336L counted along it
T5 sequence (Q9NQS5+P04899 fused P04899:C352I): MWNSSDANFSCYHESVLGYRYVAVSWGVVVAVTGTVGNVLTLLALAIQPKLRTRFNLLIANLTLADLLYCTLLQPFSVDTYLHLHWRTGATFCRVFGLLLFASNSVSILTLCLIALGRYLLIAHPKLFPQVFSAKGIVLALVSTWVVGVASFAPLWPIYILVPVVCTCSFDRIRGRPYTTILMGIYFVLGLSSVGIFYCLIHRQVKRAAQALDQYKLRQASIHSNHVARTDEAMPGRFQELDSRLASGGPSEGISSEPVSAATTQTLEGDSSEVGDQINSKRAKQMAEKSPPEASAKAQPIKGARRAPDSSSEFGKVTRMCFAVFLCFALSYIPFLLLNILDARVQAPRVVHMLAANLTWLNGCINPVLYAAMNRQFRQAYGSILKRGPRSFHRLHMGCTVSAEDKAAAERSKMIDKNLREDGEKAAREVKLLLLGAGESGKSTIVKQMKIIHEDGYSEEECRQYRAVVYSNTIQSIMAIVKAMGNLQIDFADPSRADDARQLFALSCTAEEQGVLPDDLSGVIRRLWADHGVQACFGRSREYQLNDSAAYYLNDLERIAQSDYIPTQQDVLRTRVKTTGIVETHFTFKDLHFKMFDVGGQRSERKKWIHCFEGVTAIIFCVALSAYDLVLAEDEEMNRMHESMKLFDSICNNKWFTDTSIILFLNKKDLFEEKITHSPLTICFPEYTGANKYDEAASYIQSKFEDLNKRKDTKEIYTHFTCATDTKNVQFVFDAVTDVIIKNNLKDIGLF

As to `[O-][n+]1cc(O)cc(CCc2ccc(Cl)c(C(F)(F)F)c2)c1` [OX04529], the EC50 on GPR84 F187A was 3.8 nM; at GPR84 L336A it was 1.86 nM; on GPR84 S331A it was 28.8 nM; on GPR84-WT (setting [1]) it was 49 nM; on wild type GPR84, 12.3 nM. Moreover, the “efficacy in promoting interaction with β-arrestin-1” value was “substantial efficacy” at GPR84 F187A (Phe187Ala GPR84, HEK293T) and “full agonist” on GPR84 L336A (Leu336Ala GPR84, HEK293T). The Emax was determined as 24 ± 6% at GPR84 S331A and 18 ± 4% at GPR84-WT (setting [2]). Further, on GPR84-WT (setting [2]), the “pEC50 ± SEM” value is given as 7.10 ± 10.11. Moreover, the Ki on GPR84 (wild type) (GPR84-Gi2 fusion protein stable cell line, Extended Data Fig. 7, read-out: pKi (WT) (converted)) was 51.3 nM; on GPR84 (wild type) (setting [3]), 10.2 nM. Besides, the “potency and efficacy in promoting phosphorylation of Thr263/Thr264” value on wild type GPR84 (magnetic bead capture assay) is listed as “weak efficacy”. In addition, on GPR84, the koff was 0.000649 s⁻¹. The molecule further gave a kon at GPR84 of 443000 M⁻¹ s⁻¹. Besides, at GPR84 (Fig. 1g), the Kd was found to be 1.54 ± 0.2 nM.

As for `Cc1cc(CCCc2cc(O)c[n+]([O-])c2)ccc1Cl` [OX04954], the EC50 at GPR84 F187A is 5.75 nM; on GPR84 L336A, 2.14 nM; on GPR84 S331A, 30.9 nM; on GPR84-WT (setting [1]), 39.8 nM; on GPR84-WT (β-arrestin-1 recruitment, Extended Data Table 6, read-out: pEC50 ± SEM (converted)), 31.6 nM; on wild type GPR84 it was 7.59 nM. The Emax at GPR84 S331A amounted to 66 ± 7%; on GPR84-WT (setting [2]), 71 ± 4%. The Ki on GPR84 (wild type) (setting [3]) is 6.76 nM. The off-rate constant (koff) on GPR84 (Fig. 1g, read-out: Koff (converted)) is 0.000429 s⁻¹. In addition, the Kd at GPR84 (Fig. 1g) was 1.83 ± 0.31 nM. Moreover, the kon on GPR84 (Fig. 1g, read-out: Kon (converted)) was 254000 M⁻¹ s⁻¹.

The term Emax denotes the size of the effect at its maximum, as opposed to the concentration needed. A word on the koff: it is a measure of how fast the partners let go of each other. Usually kon stands for the rate constant with which the complex forms.
